Assay results reported in patent US7199147B2, “Rho kinase inhibitors” (Dainippon Sumitomo Pharma Co., Ltd., priority 2001, dated 2007).
Structures can show the parent of a compound that is named as a salt.

Structure (SMILES) | melting point
O=C(O)C(F)(F)F.c1cc2[nH]ncc2cc1NC1CCOCC1 | 242 to 245 °C (dec.)
O=C(NC1CCN(Cc2ccccc2)C1)c1ccc2[nH]ncc2c1 (centres unmarked) | 187 to 189 °C
O=C(NC1CCCN(Cc2ccccc2)C1)c1ccc2[nH]ncc2c1 (centres unmarked) | 203 to 204 °C
O=C(NC1CCCNC1)c1ccc2[nH]ncc2c1 (centres unmarked) | 265 to 266 °C
CCOC(=O)N1C2CCC1CC(Nc1ccc3[nH]ncc3c1)C2 (centres unmarked) | 158 to 159 °C
CN1CCCC(NC(=O)c2ccc3[nH]ncc3c2)C1 (centres unmarked) | 228 to 229 °C
CC(=O)N1CCC(Nc2ccc3[nH]ncc3c2)CC1 | 193 to 195 °C (dec.)
CS(=O)(=O)N1CCC(Nc2ccc3[nH]ncc3c2)CC1 | 219 to 220 °C (dec.)
CCS(=O)(=O)N1CCC(Nc2ccc3[nH]ncc3c2)CC1 | 182 to 183 °C
O=S(=O)(c1ccccc1)N1CCC(Nc2ccc3[nH]ncc3c2)CC1 | 132 to 136 °C
CN(CCC(=O)Nc1ccc2[nH]ncc2c1)Cc1ccccc1 | 140 to 141 °C
CN(C)CCC(=O)Nc1ccc2[nH]ncc2c1 | 152 to 153 °C
O=C(CCN1CCCCC1)Nc1ccc2[nH]ncc2c1 | 178 to 179 °C
CC(C)CCC(=O)Nc1ccc2[nH]ncc2c1 | 215 to 216 °C (dec.)
COCCC(=O)Nc1ccc2[nH]ncc2c1 | 173 to 174 °C
O=C(CCC(F)(F)F)Nc1ccc2[nH]ncc2c1 | 243 to 244 °C (dec.)
CC(C)N1CCC(Nc2ccc3[nH]ncc3c2)CC1 | 140 to 141 °C
O=C(CCOCc1ccccc1)Nc1ccc2[nH]ncc2c1 | 167 to 169 °C
CN(CCCNc1ccc2[nH]ncc2c1)Cc1ccccc1 | 112 to 114 °C
O=S(=O)(Nc1ccc2[nH]ncc2c1)C1CCNCC1 | 120 to 123 °C
c1cc(OC2CCNCC2)c2cn[nH]c2c1 | 162 to 165 °C
CC(C)CCCOc1ccc2[nH]ncc2c1 | 124 to 126 °C
CC(C)COc1ccc2[nH]ncc2c1 | 151 to 153 °C
O=C(O)CCC(=O)Nc1ccc2[nH]ncc2c1 | 218 to 220 °C (dec.)
N#Cc1cccc(COc2ccc3[nH]ncc3c2)c1 | 158 to 161 °C

Structure (SMILES) | melting point
CN(CC(=O)Nc1ccc2[nH]ncc2c1)Cc1ccccc1 | 159 to 160 °C
c1cc2[nH]ncc2cc1OC1CCCCC1 | 144 to 146 °C
c1cc2[nH]ncc2cc1OC1CCCC1 | 141 to 142 °C
NCc1ccc(COc2ccc3[nH]ncc3c2)cc1 | 197 to 198 °C
NCc1cccc(COc2ccc3[nH]ncc3c2)c1 | 179 to 183 °C
CC(C)N1CCC(Oc2ccc3[nH]ncc3c2)CC1 | 125 to 126 °C
O=C(CN1CCCCC1)Nc1ccc2[nH]ncc2c1 | 189 to 190 °C
OC1CCC(Oc2ccc3[nH]ncc3c2)C1 (centres unmarked) | 147 to 148 °C
c1cc2[nH]ncc2cc1OC1CCCNCC1 (centres unmarked) | 159 to 160 °C
CN(CCCC(=O)Nc1ccc2[nH]ncc2c1)Cc1ccccc1 | 115 to 117 °C
O=C1c2ccccc2C(=O)N1[C@H]1CC[C@@H](Oc2ccc3[nH]ncc3c2)CC1 | 194 to 196 °C
N[C@H]1CC[C@@H](Oc2ccc3[nH]ncc3c2)CC1 | 144 to 146 °C
CNc1ccc2[nH]ncc2c1 | 144 to 146 °C
CN(c1ccc2[nH]ncc2c1)C1CCN(Cc2ccccc2)CC1 | 152 to 154 °C
COc1ccc2[nH]ncc2c1C | 148 to 149 °C
Cc1c(OC2=CC=CNC=C2)ccc2[nH]ncc12 | 157 to 159 °C
Cc1c(O[C@H]2CC[C@H](N)CC2)ccc2[nH]ncc12 | 150 to 152 °C
CN(c1ccc2[nH]ncc2c1)C1CCNCC1 | 175 to 177 °C
CCN[C@H]1CC[C@H](Oc2ccc3[nH]ncc3c2C)CC1 | 150 to 151 °C
Cc1c(OC2CCCNC2)ccc2[nH]ncc12 (centres unmarked) | 183 to 185 °C
Cc1c(OC2CCN(C(C)C)CC2)ccc2[nH]ncc12 | 134 to 136 °C
Cc1c(OC2CCN(C3CCCC3)CC2)ccc2[nH]ncc12 | 140 to 143 °C
c1cc2[nH]ncc2cc1OC1CCCN(C2CCCC2)CC1 (centres unmarked) | 138 to 140 °C
Cc1c(OC2CCCN(C3CCCC3)CC2)ccc2[nH]ncc12 (centres unmarked) | 126 to 131 °C
Cc1c(O[C@H]2CC[C@@H](NC(C)C)CC2)ccc2[nH]ncc12 | 166 to 168 °C

Structure (SMILES) | melting point
Cc1c(O[C@H]2CC[C@@H](NC3CCCC3)CC2)ccc2[nH]ncc12 | 153 to 155 °C
CC(=O)N1CCC(Oc2ccc3[nH]ncc3c2C)CC1 | 161 to 163 °C
O=C(c1ccc2[nH]ncc2c1)N1CCNCC1 | 190 to 191 °C
c1ccc(CN2CCN(Cc3ccc4[nH]ncc4c3)CC2)cc1 | 147 to 149 °C
CS(=O)(=O)N1CCC(C(=O)Nc2ccc3[nH]ncc3c2)CC1 | 291 to 293 °C (dec.)
O=C(Nc1ccc2[nH]ncc2c1)C1CCOCC1 | 286 to 288 °C (dec.)
c1cc2[nH]ncc2cc1NC1CC2CCC(C1)N2 (centres unmarked) | 236 to 238 °C
c1cc2[nH]ncc2cc1NCC1CCOCC1 | 293 to 294 °C (dec.)
O=C(NC1CCOCC1)c1ccc2[nH]ncc2c1 | 285 to 286 °C
Cl.Cl.c1cc2[nH]ncc2cc1NC1CN2CCC1CC2 (centres unmarked) | 184 to 188 °C
Cl.Cl.OCCN1C2CCC1CC(Nc1ccc3[nH]ncc3c1)C2 (centres unmarked) | 154 to 157 °C
CCCN1C2CCC1CC(Nc1ccc3[nH]ncc3c1)C2.Cl.Cl (centres unmarked) | 198 to 203 °C
COc1ccc2ccccc2c1CNc1ccc2[nH]ncc2c1 | 183 to 185 °C
O=C(CC1CCN(Cc2ccccc2)CC1)Nc1ccc2[nH]ncc2c1 | 195 to 197 °C
CSc1c(O)ccc2[nH]ncc12 | 126 to 128 °C
O=C(C=C1CCN(Cc2ccccc2)CC1)Nc1ccc2[nH]ncc2c1 | 169 to 172 °C
CSc1c(O[C@H]2CC[C@@H](N3C(=O)c4ccccc4C3=O)CC2)ccc2[nH]ncc12 | 211 to 212 °C
CCC(=O)N[C@H]1CC[C@@H](Oc2ccc3[nH]ncc3c2SC)CC1 | 155 to 156 °C
CSc1c(O[C@H]2CC[C@@H](NC(=O)c3ccccc3)CC2)ccc2[nH]ncc12 | 146 to 148 °C
c1ccc(CN2CCC(CCNc3ccc4[nH]ncc4c3)CC2)cc1 | 117 to 118 °C
c1cc2[nH]ncc2cc1NCCC1CCNCC1 | 184 to 186 °C (dec.)
c1ccc(CN2CCN(c3ccc4[nH]ncc4c3)CC2)cc1 | 196 to 198 °C (dec.)
CN(C)C(=O)c1ccccc1Nc1ccc2[nH]ncc2c1 | 234 to 235 °C (dec.)
Cl.Cl.c1ccc(CN2CCC(Nc3cccc4[nH]ncc34)CC2)cc1 | 257 to 260 °C (dec.)
Cl.Cl.c1cc(NC2CCNCC2)c2cn[nH]c2c1 | 270 to 271 °C

Structure (SMILES) | melting point
c1cc2cn[nH]c2cc1NC1CCNCC1 | 196 to 197 °C (dec.)
Cn1ncc2cc(NC3CCN(Cc4ccccc4)CC3)ccc21 | 116 to 117 °C
Cn1ncc2cc(NC3CCNCC3)ccc21 | 111 to 113 °C
Cn1cc2cc(NC3CCN(Cc4ccccc4)CC3)ccc2n1 | 108 to 110 °C
Cn1cc2cc(NC3CCNCC3)ccc2n1 | 144 to 147 °C
Cc1n[nH]c2ccc(NC3CCN(Cc4ccccc4)CC3)cc12 | 160 to 162 °C
Cc1n[nH]c2ccc(NC3CCNCC3)cc12 | 175 to 177 °C
c1ccc(CN2CCC(Nc3ccc4oncc4c3)CC2)cc1 | 89 to 90 °C
COc1c(OS(C)(=O)=O)ccc2[nH]ncc12 (as salt: methanesulfonate) | 130 to 131 °C
N[C@H]1CCC[C@@H](Oc2cccc3[nH]ncc23)C1 (relative stereo) | 166 to 168 °C
O=C1c2ccccc2C(=O)N1[C@H]1CCC[C@H](Oc2ccc3[nH]ncc3c2)C1 (relative stereo) | 197 to 198 °C
N[C@H]1CCC[C@H](Oc2ccc3[nH]ncc3c2)C1 (relative stereo) | 179 to 180 °C
CN(C)[C@H]1CCC[C@H](Oc2ccc3[nH]ncc3c2)C1 (relative stereo) | 134 to 135 °C
CCN[C@H]1CCC[C@H](Oc2ccc3[nH]ncc3c2)C1 (relative stereo) | 116 to 118 °C
Cc1c(O[C@H]2CCC[C@H](N)C2)ccc2[nH]ncc12 (relative stereo) | 156 to 160 °C
N[C@H]1CCC[C@H](Oc2ccc3[nH]ncc3c2Cl)C1 (relative stereo) | 142 to 144 °C
CCCCC(=O)N[C@H]1CCC[C@@H](Oc2ccc3[nH]ncc3c2C)C1 (relative stereo) | 190 to 193 °C
Cc1c(O[C@@H]2CCC[C@H](NC(=O)C3CCCC3)C2)ccc2[nH]ncc12 (relative stereo) | 242 to 244 °C (dec.)
Cc1c(O[C@@H]2CCC[C@H](NCC3CCCC3)C2)ccc2[nH]ncc12 (relative stereo) | 140 to 142 °C
COc1ccc(CN[C@H]2CCC[C@@H](Oc3ccc4[nH]ncc4c3C)C2)cc1 (relative stereo) | 164 to 166 °C
Cc1c(O[C@H]2CCC[C@H](NC3CCCC3)C2)ccc2[nH]ncc12 (relative stereo) | 110 to 112 °C
c1cc2[nH]ncc2cc1OC1CCOCC1 [Example 44] | 151 to 152 °C
c1cc2[nH]ncc2cc1OC1CCOCC1 [Example 365] | 151 to 153 °C
